Data: PubChem BioAssay (NCI)
Where “and” joins values, the source holds several entries; their conditions need not be identical. Equal values may be shown once.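 Five concentrations, 48 hours, 96-well plates. Abbreviation: GI50, concentration required for 50% inhibition of growth. TGI denotes the concentration required for complete inhibition of growth.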

Key:
Assay in all cases: NCI-60 cell line screen, 48 h
[1] = system: 786-0 renal
[2] = system: A498 renal
[3] = system: A549 NSCLC
[4] = system: ACHN renal
[5] = system: BT-549 breast
[6] = system: CAKI-1 renal
[7] = system: CCRF-CEM leukemia
[8] = system: COLO 205 colon
[9] = system: DU-145 prostate
[10] = system: EKVX NSCLC
[11] = system: HCC-2998 colon
[12] = system: HCT-116 colon
[13] = system: HCT-15 colon
[14] = system: HL-60(TB) leukemia
[15] = system: HOP-62 NSCLC
[16] = system: HOP-92 NSCLC
[17] = system: HS 578T breast
[18] = system: HT29 colon
[19] = system: IGROV1 ovarian
[20] = system: K-562 leukemia
[21] = system: KM12 colon
[22] = system: LOX IMVI melanoma
[23] = system: M14 melanoma
[24] = system: MALME-3M melanoma
[25] = system: MDA-MB-231 breast
[26] = system: MDA-MB-435
[27] = system: MDA-MB-468 breast
[28] = system: MOLT-4 leukemia
[29] = system: NCI-H226 lung
[30] = system: NCI-H23 lung
[31] = system: NCI-H460 lung
[32] = system: NCI-H522 lung
[33] = system: NCI/ADR-RES ovarian
[34] = system: OVCAR-3 ovarian
[35] = system: OVCAR-4 ovarian
[36] = system: OVCAR-5 ovarian
[37] = system: PC-3 prostate
[38] = system: RPMI-8226 leukemia
[39] = system: RXF 393 renal
[40] = system: SF-268 CNS
[41] = system: SF-295 CNS
[42] = system: SF-539 CNS
[43] = system: SK-MEL-2 melanoma
[44] = system: SK-MEL-28 melanoma
[45] = system: SK-MEL-5 melanoma
[46] = system: SK-OV-3 ovarian
[47] = system: SN12C renal
[48] = system: SNB-19 CNS
[49] = system: SNB-75 CNS
[50] = system: SR leukemia
[51] = system: SW-620 colon
[52] = system: T-47D breast
[53] = system: TK-10 renal
[54] = system: U251 CNS
[55] = system: UACC-257 melanoma
[56] = system: UACC-62 melanoma
[57] = system: UO-31 renal

In the case of `CC1=C(CCC=NNC(N)=O)C2=C(C)C3(CC3)[C@@](C)(O)C(=O)C2=C1`, the GI50 [1] is reported as 113 nM, the TGI [1] is reported as 428 nM and the GI50 [2] is reported as 208 nM. It also gave a TGI [2] of 511 nM, a GI50 [3] of 122 nM and a TGI [3] of 2160 nM. For the same compound, the GI50 [4] was 68.7 nM, the TGI [4] was 344 nM and the GI50 [5] was 60.5 nM. The TGI [5] was 212 nM, the GI50 [6] was 133 nM and the TGI [6] was 1110 nM. It also gave a GI50 [7] of 2360 nM, a TGI [7] of over 35200 nM and a GI50 [8] of 152 nM. For the same compound, the TGI [8] was 314 nM, the GI50 [9] was 34.7 nM and the TGI [9] was 1200 nM. For the same compound, the GI50 [10] was 177 nM, the TGI [10] was 526 nM and the GI50 [11] was 94.1 nM. It also gave a TGI [11] of 259 nM, a GI50 [12] of 142 nM and a TGI [12] of 1400 nM. For the same compound, the GI50 [13] was 122 nM, the TGI [13] was 616 nM and the GI50 [14] was 56.8 nM. The GI50 [15] was 74.4 nM, the TGI [15] was 802 nM and the GI50 [16] was 34.6 nM. The TGI [16] was 180 nM, the GI50 [17] was 249 nM and the TGI [17] was 1070 nM. For the same compound, the GI50 [18] was 170 nM, the TGI [18] was 740 nM and the GI50 [19] was 35.6 nM. For the same compound, the TGI [19] was 161 nM, the GI50 [20] was 2320 nM and the TGI [20] was over 37900 nM. The GI50 [21] was 506 nM, the TGI [21] was 7670 nM and the GI50 [22] was 149 nM. The TGI [22] was 410 nM, the GI50 [23] was 74.5 nM and the TGI [23] was 253 nM. The GI50 [24] was 82.2 nM, the TGI [24] was 218 nM and the GI50 [25] was 142 nM. For the same compound, the TGI [25] was 435 nM, the GI50 [26] was 267 nM and the TGI [26] was 941 nM. The GI50 [27] was 187 nM and 31.6 nM, the TGI [27] was 691 nM and 95.3 nM and the GI50 [28] was 1180 nM. It also gave a TGI [28] of over 41500 nM, a GI50 [29] of 200 nM and a TGI [29] of 646 nM. It also gave a GI50 [30] of 17.2 nM, a TGI [30] of 45 nM and a GI50 [31] of 24.3 nM. It also gave a TGI [31] of 218 nM, a GI50 [32] of 165 nM and a TGI [32] of 414 nM. It also gave a GI50 [33] of 104 nM, a TGI [33] of 407 nM and a GI50 [34] of 132 nM. It also gave a TGI [34] of 828 nM, a GI50 [35] of 172 nM and a TGI [35] of 574 nM. For the same compound, the GI50 [36] was 45.1 nM, the TGI [36] was 364 nM and the GI50 [37] was 175 nM. For the same compound, the TGI [37] was 1960 nM, the GI50 [38] was 3020 nM and the TGI [38] was over 35200 nM. The GI50 [39] was 19.4 nM, the TGI [39] was 41.8 nM and the GI50 [40] was 34.3 nM. It also gave a TGI [40] of 423 nM, a GI50 [41] of 89.3 nM and a TGI [41] of 1210 nM. For the same compound, the GI50 [42] was 32 nM, the TGI [42] was 128 nM and the GI50 [43] was 193 nM. For the same compound, the TGI [43] was 362 nM, the GI50 [44] was 187 nM and the TGI [44] was 369 nM. The GI50 [45] was 94 nM, the TGI [45] was 248 nM and the GI50 [46] was 42.2 nM. The TGI [46] was 334 nM, the GI50 [47] was 92.3 nM and the TGI [47] was 654 nM. The GI50 [48] was 225 nM, the TGI [48] was 894 nM and the GI50 [49] was 72.5 nM. The TGI [49] was 226 nM, the GI50 [50] was 1820 nM and the TGI [50] was over 100000 nM. The GI50 [51] was 1440 nM, the TGI [51] was 3740 nM and the GI50 [52] was 86.2 nM. The TGI [52] was 2740 nM, the GI50 [53] was 278 nM and the TGI [53] was 1260 nM. For the same compound, the GI50 [54] was 210 nM, the TGI [54] was 936 nM and the GI50 [55] was 190 nM. The TGI [55] was 427 nM, the GI50 [56] was 142 nM and the TGI [56] was 292 nM. The GI50 [57] was 71.2 nM and the TGI [57] was 277 nM.
